From patent publication US20050267055A1, “Agent for improvement of glucose tolerance” (USE-TECHNO CORPORATION, priority 2003, published 2005)

Assay: Glucose tolerance test in a dog after corosolic acid administration
Type: in vivo
Conditions: dog (beagle), 20 mg/kg of body weight corosolic acid single administration; 75 g grape sugar oral load; tests up to 28 days after administration vs 60 days before
Experimental: (Glucose Tolerance Improving Effect of Corosolic Acid Administration in a Dog)
A dog (beagle) was used as the test animal. 20 mg/kg of body weight of purified corosolic acid extracted from banaba leaves was administered to the animal, and the glucose tolerance improvement effect was evaluated.
The glucose tolerance was evaluated by performing glucose tolerance tests according to the procedure described in (1)-(3) below. A glucose tolerance test was performed 60 days before corosolic acid administration, immediately after corosolic acid administration, and at 7 days, 14 days, 21 days and 28 days after corosolic acid administration. At time points other than immediately after corosolic acid administration, the glucose tolerance test was performed immediately after the same dose of D-sorbitol was orally administered as a placebo instead of corosolic acid. • (1) 75 g of grape sugar is administered orally to the dog. • (2) Blood is collected from the dog's vein at 0 minute, 30 minutes, 60 minutes, 90 minutes, 120 minutes, 180 minutes and 240 minutes after grape sugar administration, and the blood glucose level of the collected blood is measured using GLUTEST SENSOR (trade name, manufactured by SANWA KAKAGU KENKYUSHO CO.,LTD). • (3) The total of 7 blood glucose levels measured above in (2) is represented by ΣBG [mg/dl].

Compound: C[C@H]1[C@H](C)CC[C@]2(C(=O)O)CC[C@]3(C)C(=CC[C@@H]4[C@@]5(C)C[C@@H](O)[C@H](O)C(C)(C)[C@@H]5CC[C@]43C)[C@H]12 [corosolic acid]
- ΣBG (total of 7 blood glucose levels in glucose tolerance test): lower values for 28 days after corosolic acid adminisration than before corosolic acid adminisration
